Results published in PubChem BioAssay (NCI).
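Cells were grown in 96-well plates and exposed to each compound for 48 hours at five concentrations; endpoints were interpolated linearly between bracketing concentrations, or set to the highest concentration if not reached. GI50 is the concentration that inhibits growth by half. TGI marks complete inhibition of growth.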

Legend:
Experiment in all cases: DTP human tumour cell line panel, 48 h
HOP-92 NSCLC = tested on: HOP-92 NSCLC
NCI-H460 lung = tested on: NCI-H460 lung
UO-31 renal = tested on: UO-31 renal
HCT-15 colon = tested on: HCT-15 colon
UACC-257 melanoma = tested on: UACC-257 melanoma
SW-620 colon = tested on: SW-620 colon
SF-295 CNS = tested on: SF-295 CNS
MOLT-4 leukemia = tested on: MOLT-4 leukemia
SK-MEL-5 melanoma = tested on: SK-MEL-5 melanoma
MDA-MB-435 = tested on: MDA-MB-435
HL-60(TB) leukemia = tested on: HL-60(TB) leukemia
SK-MEL-2 melanoma = tested on: SK-MEL-2 melanoma
MALME-3M melanoma = tested on: MALME-3M melanoma
MDA-MB-231 breast = tested on: MDA-MB-231 breast
DU-145 prostate = tested on: DU-145 prostate
NCI-H226 lung = tested on: NCI-H226 lung
CCRF-CEM leukemia = tested on: CCRF-CEM leukemia
RXF 393 renal = tested on: RXF 393 renal
IGROV1 ovarian = tested on: IGROV1 ovarian
SR leukemia = tested on: SR leukemia
MDA-MB-468 breast = tested on: MDA-MB-468 breast
OVCAR-3 ovarian = tested on: OVCAR-3 ovarian
SNB-75 CNS = tested on: SNB-75 CNS
CAKI-1 renal = tested on: CAKI-1 renal
NCI/ADR-RES ovarian = tested on: NCI/ADR-RES ovarian
HS 578T breast = tested on: HS 578T breast
UACC-62 melanoma = tested on: UACC-62 melanoma
A498 renal = tested on: A498 renal
SN12C renal = tested on: SN12C renal
EKVX NSCLC = tested on: EKVX NSCLC
SF-268 CNS = tested on: SF-268 CNS
SF-539 CNS = tested on: SF-539 CNS
COLO 205 colon = tested on: COLO 205 colon
HCT-116 colon = tested on: HCT-116 colon
786-0 renal = tested on: 786-0 renal
U251 CNS = tested on: U251 CNS
M14 melanoma = tested on: M14 melanoma
NCI-H23 lung = tested on: NCI-H23 lung
OVCAR-8 ovarian = tested on: OVCAR-8 ovarian
K-562 leukemia = tested on: K-562 leukemia
HOP-62 NSCLC = tested on: HOP-62 NSCLC
SK-OV-3 ovarian = tested on: SK-OV-3 ovarian
RPMI-8226 leukemia = tested on: RPMI-8226 leukemia
NCI-H522 lung = tested on: NCI-H522 lung
LOX IMVI melanoma = tested on: LOX IMVI melanoma
MCF7 breast = tested on: MCF7 breast
A549 NSCLC = tested on: A549 NSCLC
TK-10 renal = tested on: TK-10 renal
KM12 colon = tested on: KM12 colon
T-47D breast = tested on: T-47D breast
OVCAR-4 ovarian = tested on: OVCAR-4 ovarian
SK-MEL-28 melanoma = tested on: SK-MEL-28 melanoma
ACHN renal = tested on: ACHN renal
OVCAR-5 ovarian = tested on: OVCAR-5 ovarian
BT-549 breast = tested on: BT-549 breast
SNB-19 CNS = tested on: SNB-19 CNS
HT29 colon = tested on: HT29 colon
PC-3 prostate = tested on: PC-3 prostate
HCC-2998 colon = tested on: HCC-2998 colon

With Cc1ccc(C(C)C)cc1Oc1cccc(-c2c(-c3ccc(C(F)(F)F)cc3)ncn2C2CCNCC2)n1 the GI50 (HOP-92 NSCLC) was 1.35 µM, the TGI (HOP-92 NSCLC) was 2.84 µM and the GI50 (NCI-H460 lung) was 1.63 µM. For the same compound, the TGI (NCI-H460 lung) was 3.08 µM, the GI50 (UO-31 renal) was 1.33 µM and the TGI (UO-31 renal) was 2.63 µM. For the same compound, the GI50 (HCT-15 colon) was 1.36 µM, the TGI (HCT-15 colon) was 2.69 µM and the GI50 (UACC-257 melanoma) was 1.75 µM. It also gave a TGI (UACC-257 melanoma) of 3.4 µM, a GI50 (SW-620 colon) of 1.47 µM and a TGI (SW-620 colon) of 2.91 µM. It also gave a GI50 (SF-295 CNS) of 1.53 µM, a TGI (SF-295 CNS) of 2.97 µM and a GI50 (MOLT-4 leukemia) of 1.69 µM. For the same compound, the TGI (MOLT-4 leukemia) was 4.44 µM, the GI50 (SK-MEL-5 melanoma) was 1.61 µM and the TGI (SK-MEL-5 melanoma) was 2.99 µM. It also gave a GI50 (MDA-MB-435) of 1.7 µM, a TGI (MDA-MB-435) of 3.19 µM and a GI50 (HL-60(TB) leukemia) of 1.05 µM. The TGI (HL-60(TB) leukemia) was 3.36 µM, the GI50 (SK-MEL-2 melanoma) was 1.82 µM and the TGI (SK-MEL-2 melanoma) was 3.47 µM. The GI50 (MALME-3M melanoma) was 1.43 µM, the TGI (MALME-3M melanoma) was 2.77 µM and the GI50 (MDA-MB-231 breast) was 1.48 µM. The TGI (MDA-MB-231 breast) was 2.81 µM, the GI50 (DU-145 prostate) was 1.68 µM and the TGI (DU-145 prostate) was 3.1 µM. For the same compound, the GI50 (NCI-H226 lung) was 1.48 µM, the TGI (NCI-H226 lung) was 3.01 µM and the GI50 (CCRF-CEM leukemia) was 2.26 µM. It also gave a TGI (CCRF-CEM leukemia) of 27.9 µM, a GI50 (RXF 393 renal) of 1.34 µM and a TGI (RXF 393 renal) of 2.72 µM. It also gave a GI50 (IGROV1 ovarian) of 1.34 µM, a TGI (IGROV1 ovarian) of 2.67 µM and a GI50 (SR leukemia) of 1.61 µM. It also gave a TGI (SR leukemia) of 4.13 µM, a GI50 (MDA-MB-468 breast) of 1.33 µM and a TGI (MDA-MB-468 breast) of 2.73 µM. For the same compound, the GI50 (OVCAR-3 ovarian) was 1.8 µM, the TGI (OVCAR-3 ovarian) was 3.28 µM and the GI50 (SNB-75 CNS) was 1.3 µM. The TGI (SNB-75 CNS) was 2.68 µM, the GI50 (CAKI-1 renal) was 1.42 µM and the TGI (CAKI-1 renal) was 2.85 µM. For the same compound, the GI50 (NCI/ADR-RES ovarian) was 1.6 µM, the TGI (NCI/ADR-RES ovarian) was 3.19 µM and the GI50 (HS 578T breast) was 1.68 µM. It also gave a TGI (HS 578T breast) of 3.67 µM, a GI50 (UACC-62 melanoma) of 1.44 µM and a TGI (UACC-62 melanoma) of 2.76 µM. The GI50 (A498 renal) was 1.57 µM, the TGI (A498 renal) was 3.05 µM and the GI50 (SN12C renal) was 1.35 µM. The TGI (SN12C renal) was 2.66 µM.
COc1ccc(NC(=O)CSc2nnc(-c3ccc(-c4nc5ccc(Cl)cc5[nH]4)cc3)o2)cc1 was tested, and the GI50 (EKVX NSCLC) was 2.67 µM, the TGI (EKVX NSCLC) was 13.3 µM and the GI50 (SF-268 CNS) was 2.22 µM. The TGI (SF-268 CNS) was 5.48 µM, the GI50 (HOP-92 NSCLC) was 2.62 µM and the TGI (HOP-92 NSCLC) was 10.6 µM. The GI50 (NCI-H460 lung) was 1.35 µM, the TGI (NCI-H460 lung) was 4.16 µM and the GI50 (SF-539 CNS) was 1.9 µM. The TGI (SF-539 CNS) was 4.52 µM, the GI50 (UO-31 renal) was 10.9 µM and the TGI (UO-31 renal) was 23.1 µM. It also gave a GI50 (COLO 205 colon) of 19 µM, a TGI (COLO 205 colon) of 92.1 µM and a GI50 (HCT-15 colon) of 7.77 µM. The TGI (HCT-15 colon) was 84.2 µM, the GI50 (HCT-116 colon) was 3.91 µM and the TGI (HCT-116 colon) was 26.7 µM. It also gave a GI50 (UACC-257 melanoma) of 3.83 µM, a TGI (UACC-257 melanoma) of 23.6 µM and a GI50 (786-0 renal) of 1.74 µM. It also gave a TGI (786-0 renal) of 3.56 µM, a GI50 (U251 CNS) of 4.83 µM and a TGI (U251 CNS) of 16.5 µM. It also gave a GI50 (SW-620 colon) of 4.54 µM, a TGI (SW-620 colon) of 20.6 µM and a GI50 (M14 melanoma) of 3.74 µM. For the same compound, the TGI (M14 melanoma) was 17.2 µM, the GI50 (NCI-H23 lung) was 2.97 µM and the TGI (NCI-H23 lung) was 11.4 µM. It also gave a GI50 (SF-295 CNS) of 1.36 µM, a TGI (SF-295 CNS) of 4.05 µM and a GI50 (MOLT-4 leukemia) of 6.46 µM. The TGI (MOLT-4 leukemia) was > 100 µM, the GI50 (SK-MEL-5 melanoma) was 3.02 µM and the TGI (SK-MEL-5 melanoma) was 11.8 µM. The GI50 (MDA-MB-435) was 1.87 µM, the TGI (MDA-MB-435) was 8.03 µM and the GI50 (OVCAR-8 ovarian) was 3.58 µM. The TGI (OVCAR-8 ovarian) was 26 µM, the GI50 (HL-60(TB) leukemia) was > 100 µM and the TGI (HL-60(TB) leukemia) was > 100 µM. The GI50 (K-562 leukemia) was 2.74 µM, the TGI (K-562 leukemia) was > 100 µM and the GI50 (HOP-62 NSCLC) was 2.52 µM. The TGI (HOP-62 NSCLC) was 5.37 µM, the GI50 (SK-MEL-2 melanoma) was 6.96 µM and the TGI (SK-MEL-2 melanoma) was 25.4 µM. The GI50 (SK-OV-3 ovarian) was 2.87 µM, the TGI (SK-OV-3 ovarian) was 7.61 µM and the GI50 (RPMI-8226 leukemia) was 12 µM. For the same compound, the TGI (RPMI-8226 leukemia) was > 100 µM, the GI50 (NCI-H522 lung) was 2.11 µM and the TGI (NCI-H522 lung) was 8.03 µM. It also gave a GI50 (LOX IMVI melanoma) of 2.29 µM, a TGI (LOX IMVI melanoma) of 6.68 µM and a GI50 (MALME-3M melanoma) of 1.9 µM. The TGI (MALME-3M melanoma) was 5.63 µM, the GI50 (MDA-MB-231 breast) was 3.77 µM and the TGI (MDA-MB-231 breast) was 13.8 µM. The GI50 (MCF7 breast) was 4.39 µM, the TGI (MCF7 breast) was 74.2 µM and the GI50 (A549 NSCLC) was 2.44 µM. It also gave a TGI (A549 NSCLC) of 10.7 µM, a GI50 (TK-10 renal) of 16.5 µM and a TGI (TK-10 renal) of 30.1 µM. For the same compound, the GI50 (DU-145 prostate) was 2.29 µM, the TGI (DU-145 prostate) was 5.61 µM and the GI50 (NCI-H226 lung) was 1.94 µM. The TGI (NCI-H226 lung) was 5.19 µM, the GI50 (CCRF-CEM leukemia) was 6.86 µM and the TGI (CCRF-CEM leukemia) was > 100 µM. It also gave a GI50 (KM12 colon) of 5.16 µM, a TGI (KM12 colon) of 25.7 µM and a GI50 (T-47D breast) of 14.2 µM. It also gave a TGI (T-47D breast) of 57.9 µM, a GI50 (OVCAR-4 ovarian) of 3.02 µM and a TGI (OVCAR-4 ovarian) of 10 µM. The GI50 (SK-MEL-28 melanoma) was 1.96 µM, the TGI (SK-MEL-28 melanoma) was 5.79 µM and the GI50 (RXF 393 renal) was 2.3 µM. For the same compound, the TGI (RXF 393 renal) was 5.61 µM, the GI50 (ACHN renal) was 2.69 µM and the TGI (ACHN renal) was 11.6 µM. For the same compound, the GI50 (IGROV1 ovarian) was 12.4 µM, the TGI (IGROV1 ovarian) was 25.3 µM and the GI50 (SR leukemia) was 10.3 µM. The TGI (SR leukemia) was > 100 µM, the GI50 (OVCAR-5 ovarian) was 6.44 µM and the TGI (OVCAR-5 ovarian) was 22 µM. For the same compound, the GI50 (MDA-MB-468 breast) was 15 µM, the TGI (MDA-MB-468 breast) was 38.4 µM and the GI50 (BT-549 breast) was 2.75 µM. The TGI (BT-549 breast) was 6.12 µM, the GI50 (OVCAR-3 ovarian) was 3.72 µM and the TGI (OVCAR-3 ovarian) was 14 µM. The GI50 (SNB-19 CNS) was 2.54 µM, the TGI (SNB-19 CNS) was 7.59 µM and the GI50 (SNB-75 CNS) was 1.42 µM. For the same compound, the TGI (SNB-75 CNS) was 3.86 µM, the GI50 (CAKI-1 renal) was 1.54 µM and the TGI (CAKI-1 renal) was 3.38 µM. The GI50 (HT29 colon) was 4.9 µM, the TGI (HT29 colon) was 23.3 µM and the GI50 (NCI/ADR-RES ovarian) was 10.2 µM. It also gave a TGI (NCI/ADR-RES ovarian) of 42.9 µM, a GI50 (HS 578T breast) of 2.28 µM and a TGI (HS 578T breast) of 7.23 µM. It also gave a GI50 (PC-3 prostate) of 1.61 µM, a TGI (PC-3 prostate) of 4.27 µM and a GI50 (UACC-62 melanoma) of 3.81 µM. The TGI (UACC-62 melanoma) was 15.3 µM, the GI50 (A498 renal) was 4.26 µM and the TGI (A498 renal) was 16 µM. The GI50 (HCC-2998 colon) was 43.5 µM, the TGI (HCC-2998 colon) was > 100 µM and the GI50 (SN12C renal) was 3.27 µM. For the same compound, the TGI (SN12C renal) was 16.3 µM.
